In patent US20070061899A1, “Transgenic mammal with constitutive, tissue-specific cytokine expression and use as a cancer model” (THE TRUSTEES OF COLUMBIA UNIVERSITY IN THE CITY OF NEW YORK, priority 2005, published 2007):

Assays:
B16 melanoma = conditions: murine B16 model, cited from earlier work
fibrosarcoma = conditions: control mice, systemic treatments; cited from earlier work
[1] = test system: tumor development induced by IL-1; conditions: release of 25 ng per day from microencapsulated cells, mice; cited from earlier work
[2] = test system: IL-1β mice and C57BL/6J mice infected with Helicobacter felis; assay: IL-1RA treatment of bone marrow transplanted, Helicobacter felis infected mice; assay type: in vivo, mouse; conditions: hIL-1RA by osmotic minipump, 100 mg/kg/day for 30 days; eight weeks after H. felis infection
From the text: Bone marrow transplantation, and Helicobacter felis infection and IL-RA treatment. Bone marrow was isolated from the femurs and tibias of 6-8 week old C57BL/6-TgN [ACThEGFP] (GFP) mice. Total bone marrow was washed, triturated using a 20 gauge needle and passed through a 40 sum nylon mesh cell strainer (Becton Dickson) to produce a single cell suspension in PBS. Recipient IL-β mice and C57BL/6J mice were irradiated with 900 rads from a cesium 137-gamma cell irradiator, reconstituted with 3×10^6 donor marrow cells via a single tail vein injection, and used for experiments after 2 weeks of recovery. The overall level of engraftment was 60-80% as assessed by analysis of β-galactosidase or GFP in peripheral leukocytes. Non-transplanted IL-β mice and C57BL/6 mice served as controls for all injury models. Helicobacter felis (strain 49179) was obtained from the […] (Rockville, Md.), grown as recommended and bacteria enumerated as previously described (Houghton 2004). Two weeks after transplantation, mice were infected by oral gavage with 1×10^7 colony forming units every other day for 3 days. […]
Single cell preparation and FACS analysis. […] All single cell suspensions were stained with FITC-labeled anti-CD34, PE-labeled […] as well as Cy5-labeled anti-CD3 and anti-B220 antibodies (Pharmingen) and analyzed using a FACScan™ flow cytometer. […]

[3] = test system: C57BL/6J mice and Balb/c mice; assay: Continuous infusion of IL-1β into mice (preliminary experiment); assay type: in vivo, mouse; conditions: continuous infusion (13 days)

Row | Molecule | metastases (B16 melanoma) | survival rates (B16 melanoma) | fibrosarcoma growth (fibrosarcoma) | angiogenesis [1] | tumor development [1] | development of gastritis [2] | mobilization of hematopoietic stem cells circulation and stomach tissues [2] | liver metastasis (B16 melanoma; intrasplenic injection) | gastric atrophy [3]
1 | IL-1RA: IL-1 receptor antagonist; binds IL-1 receptor type I without transmitting an activation signal | reduced | increased | inhibited | reduced | inhibited | reduces | reduces |  | 
2 | IL-1β: proinflammatory pleiotropic cytokine, infused or injected into mice (protein, UniProt P10749 118-269, looked up) Interleukin-1 beta: VPIRQLHYRLRDEQQKSLVLSDPYELKALHLNGQNINQQVIFSMSFVQGEPSNDKIPVALGLKGKNLYLSCVMKDGTPTLQLESVDPKQYPKKKMEKRFVFNKIEVKSKVEFESAEFPNWYISTSQAEHKPVFLGNNSGQDIIDFTMESVSS |  |  |  |  |  |  |  | increased | caused gastric atrophy
